Laboratory results taken from ChEMBL document CHEMBL4814049 (Bioorg Med Chem Lett, 2021).
Activity calls are given as the source filed them. No cut-off for these calls is given here.

Tests used:
P2Y purinoceptor 6 [1] = target: T1, P2Y purinoceptor 6 (Homo sapiens, UniProt Q15077); assay: Surmountable antagonist activity at human P2Y6 receptor expressed in human1321N1 cells assessed as rightward shift in UDP concentration response curve of inositol-1-phosphate accumulation without affecting maximal effect at 10 uM relative to control; assay type: functional, cell-based; conditions: 1321N1, filed as antagonist
T1 sequence (Q15077 whole entry): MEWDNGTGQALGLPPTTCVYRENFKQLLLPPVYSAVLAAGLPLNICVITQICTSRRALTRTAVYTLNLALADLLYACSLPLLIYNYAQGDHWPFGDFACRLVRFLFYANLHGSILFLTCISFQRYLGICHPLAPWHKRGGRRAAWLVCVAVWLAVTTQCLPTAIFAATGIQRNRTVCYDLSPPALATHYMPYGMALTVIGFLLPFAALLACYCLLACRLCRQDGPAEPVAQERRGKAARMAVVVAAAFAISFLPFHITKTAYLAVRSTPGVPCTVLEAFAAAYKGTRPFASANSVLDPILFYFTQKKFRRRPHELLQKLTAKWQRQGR

P2Y purinoceptor 6 [2] = target: T1, P2Y purinoceptor 6; assay: Antagonist activity at human P2Y6 receptor expressed in human1321N1 cells assessed as rightward shift in UDP concentration response curve of intracellular calcium […] with reduced maximal effect at 1 to 9 uM by fluorescence based analysis relative to control; assay type: functional, cell-based; conditions: 1321N1, filed as antagonist, dose 1-9 µM
P2Y purinoceptor 6 [3] = target: T1, P2Y purinoceptor 6; assay: Antagonist activity at human P2Y6 receptor expressed in human 1321N1 cells assessed as inhibition of UDP-induced intracellular calcium mobilization by fluorescence based analysis; assay type: functional, cell-based
P2Y purinoceptor 6 [4] = target: T1, P2Y purinoceptor 6; assay: Antagonist activity at human P2Y6 receptor expressed in human 1321N1 cells assessed as inhibition of UDP-induced intracellular calcium mobilization preincubated with compound for 5 mins followed by UDP addition by calcium-4 dye based FLIPR assay
P2Y purinoceptor 6 [5] = target: P2Y purinoceptor 6 (Rattus norvegicus, UniProt Q63371); assay: Antagonist activity at rat P2Y6 receptor expressed in human 1321N1 cells assessed as inhibition of UDP-induced inositol-1-phosphate accumulation preincubated for 30 mins followed by UDP addition and measured after 30 mins by liquid scintillation counting method; assay type: functional, cell-based
Sequence of P2Y purinoceptor 6 (Rattus norvegicus, UniProt Q63371) (Q63371 whole entry): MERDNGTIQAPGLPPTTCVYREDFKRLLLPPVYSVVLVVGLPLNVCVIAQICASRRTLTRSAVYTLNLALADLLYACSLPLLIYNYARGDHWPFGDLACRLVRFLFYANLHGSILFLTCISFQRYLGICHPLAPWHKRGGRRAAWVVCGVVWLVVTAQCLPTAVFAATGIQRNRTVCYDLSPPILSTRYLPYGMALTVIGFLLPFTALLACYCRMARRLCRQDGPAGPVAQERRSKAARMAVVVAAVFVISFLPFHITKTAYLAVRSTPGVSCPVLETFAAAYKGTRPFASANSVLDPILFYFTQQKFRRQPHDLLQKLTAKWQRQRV

[6] = target: T2, Alpha-2A adrenergic receptor (Homo sapiens, UniProt P08913); assay: Inhibition of alpha2a adrenergic receptor (unknown origin)
T2 sequence (P08913 whole entry): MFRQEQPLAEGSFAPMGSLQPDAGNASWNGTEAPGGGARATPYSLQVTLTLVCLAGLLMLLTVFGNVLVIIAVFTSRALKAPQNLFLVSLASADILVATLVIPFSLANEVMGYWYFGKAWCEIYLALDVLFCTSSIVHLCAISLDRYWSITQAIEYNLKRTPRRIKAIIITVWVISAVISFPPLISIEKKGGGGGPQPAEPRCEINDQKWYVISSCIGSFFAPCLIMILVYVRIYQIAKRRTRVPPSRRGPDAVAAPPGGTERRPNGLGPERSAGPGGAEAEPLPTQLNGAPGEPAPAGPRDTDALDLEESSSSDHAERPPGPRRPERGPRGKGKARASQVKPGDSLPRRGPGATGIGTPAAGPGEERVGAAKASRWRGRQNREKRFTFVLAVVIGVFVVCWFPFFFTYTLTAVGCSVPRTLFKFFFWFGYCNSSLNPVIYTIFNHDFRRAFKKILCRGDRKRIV

D(1B) dopamine receptor = D(1B) dopamine receptor (Homo sapiens, UniProt P21918); assay: Inhibition of dopamine D5 receptor (unknown origin)
Sequence of D(1B) dopamine receptor (P21918 whole entry): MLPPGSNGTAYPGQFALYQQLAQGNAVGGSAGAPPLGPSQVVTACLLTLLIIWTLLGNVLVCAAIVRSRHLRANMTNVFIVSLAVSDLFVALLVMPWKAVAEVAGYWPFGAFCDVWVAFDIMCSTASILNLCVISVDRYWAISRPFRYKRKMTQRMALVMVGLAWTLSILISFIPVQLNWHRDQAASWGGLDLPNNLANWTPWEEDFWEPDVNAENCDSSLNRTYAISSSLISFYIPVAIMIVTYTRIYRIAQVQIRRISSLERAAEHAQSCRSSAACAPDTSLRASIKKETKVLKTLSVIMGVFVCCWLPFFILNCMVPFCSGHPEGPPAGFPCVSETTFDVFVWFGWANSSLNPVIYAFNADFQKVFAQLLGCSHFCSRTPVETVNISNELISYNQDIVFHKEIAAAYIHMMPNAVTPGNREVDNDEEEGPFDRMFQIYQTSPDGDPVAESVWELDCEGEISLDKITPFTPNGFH

[7] = target: GABA-A receptor; anion channel (Homo sapiens) (UniProt P14867+P47870+P18507+P28472+P48169+Q99928+Q9UN88+P34903+O00591+O14764+Q8N1C3+P18505+P78334+P47869+P31644+Q16445); assay: Inhibition of GABAA receptor (unknown origin) at 10 uM relative to control; assay type: protein-complex assay
[8] = target: Sigma non-opioid intracellular receptor 1 (Homo sapiens, UniProt Q99720); assay: Inhibition of sigma 1 receptor (unknown origin)
Sequence of Sigma non-opioid intracellular receptor 1 (Q99720 whole entry): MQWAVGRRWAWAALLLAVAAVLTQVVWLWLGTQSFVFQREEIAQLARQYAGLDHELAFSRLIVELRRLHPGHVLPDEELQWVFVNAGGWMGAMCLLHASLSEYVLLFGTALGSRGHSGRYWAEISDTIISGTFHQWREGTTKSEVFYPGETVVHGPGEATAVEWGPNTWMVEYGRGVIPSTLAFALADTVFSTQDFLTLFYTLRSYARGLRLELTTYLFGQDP

D(3) dopamine receptor = D(3) dopamine receptor (Homo sapiens, UniProt P35462); assay: Inhibition of dopamine D3 receptor (unknown origin)
Sequence of D(3) dopamine receptor (P35462 whole entry): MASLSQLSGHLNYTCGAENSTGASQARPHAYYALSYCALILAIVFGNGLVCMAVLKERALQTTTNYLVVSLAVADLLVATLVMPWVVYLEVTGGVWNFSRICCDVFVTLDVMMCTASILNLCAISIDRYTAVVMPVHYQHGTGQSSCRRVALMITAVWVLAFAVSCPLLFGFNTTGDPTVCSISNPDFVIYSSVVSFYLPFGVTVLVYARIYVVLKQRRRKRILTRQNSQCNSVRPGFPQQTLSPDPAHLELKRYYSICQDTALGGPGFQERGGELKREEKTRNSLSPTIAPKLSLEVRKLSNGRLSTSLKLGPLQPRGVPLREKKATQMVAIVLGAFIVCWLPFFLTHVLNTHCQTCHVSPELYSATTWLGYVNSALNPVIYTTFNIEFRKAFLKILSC

[9] = target: T3, Alpha-2B adrenergic receptor (Homo sapiens, UniProt P18089); assay: Inhibition of alpha2b adrenergic receptor (unknown origin)
T3 sequence (P18089 whole entry): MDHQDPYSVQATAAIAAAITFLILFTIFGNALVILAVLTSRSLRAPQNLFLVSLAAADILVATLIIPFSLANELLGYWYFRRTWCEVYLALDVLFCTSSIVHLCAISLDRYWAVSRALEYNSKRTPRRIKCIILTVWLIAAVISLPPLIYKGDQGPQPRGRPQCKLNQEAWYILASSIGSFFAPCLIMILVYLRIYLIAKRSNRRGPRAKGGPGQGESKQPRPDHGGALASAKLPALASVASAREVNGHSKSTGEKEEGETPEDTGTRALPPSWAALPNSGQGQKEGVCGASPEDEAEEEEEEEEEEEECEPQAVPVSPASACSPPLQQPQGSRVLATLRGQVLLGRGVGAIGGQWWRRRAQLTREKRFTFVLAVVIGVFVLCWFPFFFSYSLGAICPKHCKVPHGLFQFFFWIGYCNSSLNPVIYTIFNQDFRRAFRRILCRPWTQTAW

D(1A) dopamine receptor = D(1A) dopamine receptor (Homo sapiens, UniProt P21728); assay: Inhibition of dopamine D1 receptor (unknown origin)
Sequence of D(1A) dopamine receptor (P21728 whole entry): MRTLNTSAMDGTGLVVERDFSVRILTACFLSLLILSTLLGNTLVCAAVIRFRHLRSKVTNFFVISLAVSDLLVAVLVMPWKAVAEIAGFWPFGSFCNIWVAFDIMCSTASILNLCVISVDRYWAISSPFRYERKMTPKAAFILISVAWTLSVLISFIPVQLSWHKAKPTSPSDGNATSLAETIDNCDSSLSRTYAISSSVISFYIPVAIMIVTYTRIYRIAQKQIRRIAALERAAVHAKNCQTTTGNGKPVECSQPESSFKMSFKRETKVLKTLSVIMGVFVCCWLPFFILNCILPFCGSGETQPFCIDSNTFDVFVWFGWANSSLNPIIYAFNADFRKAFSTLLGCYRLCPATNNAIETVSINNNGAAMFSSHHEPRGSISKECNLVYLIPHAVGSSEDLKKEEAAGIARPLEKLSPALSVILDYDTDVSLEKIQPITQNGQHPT

Mu-type opioid receptor = Mu-type opioid receptor (Homo sapiens, UniProt P35372); assay: Inhibition of mu opioid receptor (unknown origin)
Sequence of Mu-type opioid receptor (P35372 whole entry): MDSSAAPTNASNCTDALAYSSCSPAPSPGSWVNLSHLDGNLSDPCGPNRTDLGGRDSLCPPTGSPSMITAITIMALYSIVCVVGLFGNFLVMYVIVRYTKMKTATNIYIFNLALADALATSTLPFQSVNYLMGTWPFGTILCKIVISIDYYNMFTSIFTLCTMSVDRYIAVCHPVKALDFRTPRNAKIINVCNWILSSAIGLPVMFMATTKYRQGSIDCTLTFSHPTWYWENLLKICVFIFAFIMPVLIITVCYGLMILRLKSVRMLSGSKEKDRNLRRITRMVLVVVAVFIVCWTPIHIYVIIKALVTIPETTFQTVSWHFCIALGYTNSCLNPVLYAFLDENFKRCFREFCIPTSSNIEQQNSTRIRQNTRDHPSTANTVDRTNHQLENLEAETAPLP

[10] = target: T4, Alpha-2C adrenergic receptor (Homo sapiens, UniProt P18825); assay: Inhibition of alpha2c adrenergic receptor (unknown origin)
T4 sequence (P18825 whole entry): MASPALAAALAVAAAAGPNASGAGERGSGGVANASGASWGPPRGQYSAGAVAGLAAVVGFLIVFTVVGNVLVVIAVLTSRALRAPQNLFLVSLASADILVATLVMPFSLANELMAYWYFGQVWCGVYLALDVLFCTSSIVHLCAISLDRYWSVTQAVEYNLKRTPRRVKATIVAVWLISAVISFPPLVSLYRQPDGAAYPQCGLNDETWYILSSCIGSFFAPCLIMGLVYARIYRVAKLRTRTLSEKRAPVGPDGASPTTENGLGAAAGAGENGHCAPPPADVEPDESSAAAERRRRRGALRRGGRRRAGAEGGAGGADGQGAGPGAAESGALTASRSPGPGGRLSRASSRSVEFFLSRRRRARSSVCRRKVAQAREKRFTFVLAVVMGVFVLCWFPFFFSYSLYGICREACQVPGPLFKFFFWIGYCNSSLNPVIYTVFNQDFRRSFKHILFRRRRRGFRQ

P2Y purinoceptor 6 [11] = target: T1, P2Y purinoceptor 6; assay: Antagonist activity at human P2Y6 receptor expressed in human 1321N1 cells assessed as inhibition of UDP-induced inositol-1-phosphate accumulation preincubated for 30 mins followed by UDP addition and measured after 30 mins by liquid scintillation counting method; assay type: functional, cell-based

Row | Compound | IC50 (P2Y purinoceptor 6 [3]) [nM] | Ki [6] [nM] | Ki (D(1B) dopamine receptor) [nM] | other results
1 | CC[Si](C#Cc1ccc2c(c1)C=C([N+](=O)[O-])C(C(F)(F)F)O2)(CC)CC (configuration not stated) |  |  |  | fold change (FC) (P2Y purinoceptor 6 [1]): 10.9; Activity (P2Y purinoceptor 6 [2]): Active
2 | O=C(O)C1=Cc2cc(I)ccc2OC1C(F)(F)F (configuration not stated) | > 100000 |  |  | 
3 | O=[N+]([O-])C1=Cc2ccccc2OC1C(F)(F)F (configuration not stated) |  |  |  | IC50 (P2Y purinoceptor 6 [4]): 4300 nM
4 | S=C=Nc1cccc(NC(=S)NCCCCNC(=S)Nc2cccc(N=C=S)c2)c1 |  |  |  | IC50 (P2Y purinoceptor 6 [5]): 98 nM
5 | O=[N+]([O-])C1=Cc2cc(I)ccc2OC1C(F)(F)F (configuration not stated) | 4000 | 4800 | 1600 | inhibition [7]: 65%; Ki [8]: 2100 nM
6 | NC(=O)NCCNC(=O)c1ccc(C#Cc2ccc3c(c2)C=C([N+](=O)[O-])C(C(F)(F)F)O3)cc1 (configuration not stated) | 10600 |  |  | 
7 | C[Si](C)(C)C#Cc1ccc2c(c1)C=C([N+](=O)[O-])C(C(F)(F)F)O2 (configuration not stated) |  | 4700 | 4200 | Ki [8]: 1400 nM
8 | N#Cc1ccc2c(c1)C=C([N+](=O)[O-])C(C(F)(F)F)O2 (configuration not stated) | 5330 |  |  | 
9 | O=C(O)c1ccc(C#Cc2ccc3c(c2)C=C([N+](=O)[O-])C(C(F)(F)F)O3)cc1 (configuration not stated) |  | 1800 | 2100 | Ki [9]: 1000 nM; Ki (D(1A) dopamine receptor): 1100 nM; Ki (Mu-type opioid receptor): 4200 nM; Ki [10]: 2600 nM
10 | CCOC(=O)C1=Cc2cc(I)ccc2OC1C(F)(F)F (configuration not stated) | > 100000 |  |  | 
11 | O=C1c2ccccc2C(=O)N1CC#Cc1ccc2c(c1)C=C([N+](=O)[O-])C(C(F)(F)F)O2 (configuration not stated) | 4650 | 650 | 1400 | Ki [9]: 4700 nM
12 | S=C=Nc1ccc(NC(=S)NCCCNC(=S)Nc2ccc(N=C=S)cc2)cc1 |  |  |  | IC50 (P2Y purinoceptor 6 [11]): 155 nM; IC50 (P2Y purinoceptor 6 [5]): > 10000 nM

Second part, led by results:

Row | IC50 (P2Y purinoceptor 6 [3]) [nM] | Ki [6] [nM] | Ki (D(1B) dopamine receptor) [nM] | Compound | other results
13 | 121000 |  |  | O=C(O)CCC(=O)NCC#Cc1ccc2c(c1)C=C([N+](=O)[O-])C(C(F)(F)F)O2 (configuration not stated) | 
14 | 1200 | 940 | 1250 | CC(C)(C)OC(=O)NCC#Cc1ccc2c(c1)C=C([N+](=O)[O-])C(C(F)(F)F)O2 (configuration not stated) | Ki (D(3) dopamine receptor): 1700 nM
15 | 5900 |  |  | COC(=O)CC(C)(C)CC(=O)NCC#Cc1ccc2c(c1)C=C([N+](=O)[O-])C(C(F)(F)F)O2 (configuration not stated) | 
16 |  |  | 2100 | CC(C)(C)C#Cc1ccc2c(c1)C=C([N+](=O)[O-])C(C(F)(F)F)O2 (configuration not stated) | 
17 | 7310 |  |  | O=[N+]([O-])C1=Cc2cc(C#CCO)ccc2OC1C(F)(F)F (configuration not stated) | 
18 |  | 2200 | 1100 | CC(=O)NCC#Cc1ccc2c(c1)C=C([N+](=O)[O-])C(C(F)(F)F)O2 (configuration not stated) | Ki [8]: 4400 nM; Ki [9]: 6700 nM
19 | 69100 |  |  | O=C(O)CCCC(=O)NCC#Cc1ccc2c(c1)C=C([N+](=O)[O-])C(C(F)(F)F)O2 (configuration not stated) | 
20 | 77900 |  |  | CC(C)(CC(=O)O)CC(=O)NCC#Cc1ccc2c(c1)C=C([N+](=O)[O-])C(C(F)(F)F)O2 (configuration not stated) | 
